Measured values taken from ChEMBL document CHEMBL5728996 (2022).
pIC50: −log10 of the molar value.

Assays:
Adenosine receptor A1 = target: T1, Adenosine receptor A1 (Homo sapiens, UniProt P30542); test: (§1) Activity Assay: Compounds (Adenosine Receptor modulators) and activity assay.
T1 sequence (P30542 whole entry): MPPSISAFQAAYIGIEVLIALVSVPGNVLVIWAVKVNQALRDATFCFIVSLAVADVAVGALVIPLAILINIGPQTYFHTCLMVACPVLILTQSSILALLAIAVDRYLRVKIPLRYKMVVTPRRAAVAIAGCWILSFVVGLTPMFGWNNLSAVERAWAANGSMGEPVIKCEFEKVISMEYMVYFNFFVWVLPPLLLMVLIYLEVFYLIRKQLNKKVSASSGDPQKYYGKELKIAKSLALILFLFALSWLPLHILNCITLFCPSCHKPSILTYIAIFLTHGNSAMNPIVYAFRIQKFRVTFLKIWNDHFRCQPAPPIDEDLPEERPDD

Adenosine receptor A3 = target: T2, Adenosine receptor A3 (Homo sapiens, UniProt P0DMS8); test: as §1
T2 sequence (P0DMS8 whole entry): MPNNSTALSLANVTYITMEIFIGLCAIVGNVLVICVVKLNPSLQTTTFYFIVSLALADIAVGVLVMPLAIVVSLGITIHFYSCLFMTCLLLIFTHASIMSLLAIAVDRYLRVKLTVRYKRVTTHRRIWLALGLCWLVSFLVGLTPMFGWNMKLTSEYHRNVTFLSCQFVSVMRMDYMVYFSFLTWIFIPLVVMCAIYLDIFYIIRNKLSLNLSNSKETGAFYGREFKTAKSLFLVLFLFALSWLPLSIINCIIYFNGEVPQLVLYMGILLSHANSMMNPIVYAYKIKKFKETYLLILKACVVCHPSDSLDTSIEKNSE

Adenosine receptor A2a = Adenosine receptor A2a (Homo sapiens, UniProt P29274); test: as §1; assay type: single protein
Adenosine receptor A2b = target: T3, Adenosine receptor A2b (Homo sapiens, UniProt P29275); test: as §1
T3 sequence (P29275 whole entry): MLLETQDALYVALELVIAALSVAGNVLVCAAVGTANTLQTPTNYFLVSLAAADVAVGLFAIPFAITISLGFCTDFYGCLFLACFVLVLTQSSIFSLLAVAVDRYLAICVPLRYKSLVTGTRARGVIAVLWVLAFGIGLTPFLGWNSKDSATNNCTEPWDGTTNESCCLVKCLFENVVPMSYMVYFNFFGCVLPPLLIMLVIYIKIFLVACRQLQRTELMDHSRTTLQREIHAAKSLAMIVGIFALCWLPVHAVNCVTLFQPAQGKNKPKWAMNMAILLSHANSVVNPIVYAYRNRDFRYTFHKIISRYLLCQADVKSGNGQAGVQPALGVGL

Chain of Adenosine receptor A2a (P29274 whole entry): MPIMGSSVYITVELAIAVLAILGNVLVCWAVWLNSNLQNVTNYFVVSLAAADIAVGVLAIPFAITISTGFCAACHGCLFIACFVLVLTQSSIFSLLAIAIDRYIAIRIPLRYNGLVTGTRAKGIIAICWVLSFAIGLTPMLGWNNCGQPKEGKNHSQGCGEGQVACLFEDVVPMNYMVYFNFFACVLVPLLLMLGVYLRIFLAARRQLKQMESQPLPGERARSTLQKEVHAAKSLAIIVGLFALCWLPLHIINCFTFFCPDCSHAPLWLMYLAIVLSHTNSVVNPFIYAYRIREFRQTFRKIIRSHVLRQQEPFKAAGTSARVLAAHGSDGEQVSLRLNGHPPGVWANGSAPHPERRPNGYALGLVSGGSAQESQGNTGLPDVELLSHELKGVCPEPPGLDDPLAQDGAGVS

| SMILES | pIC50 (Adenosine receptor A1) | pIC50 (Adenosine receptor A3) | pIC50 (Adenosine receptor A2a) | pIC50 (Adenosine receptor A2b) |
| --- | --- | --- | --- | --- |
| C[C@H](Nc1nc(C(=O)N2CC[C@@H](NC(=O)OC(C)(C)C)C2)c2sccc2n1)c1ccccn1 | < 6.30 | < 6.30 | – | – |
| CC(=O)Nc1ccc(CCNC(=O)c2nc(N[C@@H](C)c3cncc(F)c3)nc3ccsc23)cc1 | < 6.30 | < 6.30 | < 6.30 | – |
| CCC(Nc1nc(C(=O)NCc2ccc(OC)nc2)c2sccc2n1)c1cccnc1 (configuration not stated) | – | – | – | < 6.30 |
| COc1ccc(CNC(=O)c2nc(NCc3cncc(F)c3)nc3ccsc23)cn1 | < 6.30 | < 6.30 | – | – |
| C[C@H](Nc1nc(C(=O)N2CC[C@@H](S(C)(=O)=O)C2)c2sccc2n1)c1ccccn1 | – | – | < 6.30 | – |
| O=C(c1nc(NCc2cncc(F)c2)nc2ccsc12)N1CCCC1 | < 6.30 | < 6.30 | – | > 8.00 |
| C[C@H](Nc1nc(C(=O)NCCO)c2sccc2n1)c1cccnc1 | < 6.30 | < 6.30 | – | – |
| C[C@H](Nc1nc(C(=O)NCCc2ccccc2O)c2sccc2n1)c1cncc(F)c1 | – | – | – | > 8.00 |
| CC(C)(C)OC(=O)N1CCC[C@@H]1CNC(=O)c1nc(NCc2cncc(F)c2)nc2ccsc12 | – | – | < 6.30 | < 6.30 |
| CC(=O)Nc1ccc(CCNC(=O)c2nc(N[C@@H](C)c3cccnc3)nc3cc(C)sc23)cc1 | < 6.30 | – | < 6.30 | – |
| O=C(c1nc(NCc2ccc(F)cn2)nc2ccsc12)N1CC[C@H](O)C1 | – | – | < 6.30 | < 6.30 |
| C[C@H](Nc1nc(C(=O)N2CC(CN)C2)c2sccc2n1)c1cncc(F)c1 | < 6.30 | < 6.30 | < 6.30 | – |
| COCCN1CCC(CNC(=O)c2nc(N[C@@H](C)c3ccccn3)nc3ccsc23)CC1 | – | – | < 6.30 | < 6.30 |
| C[C@H](Nc1nc(C(=O)N[C@H]2CC[C@@H](O)C2)c2sccc2n1)c1ccccn1 | < 6.30 | < 6.30 | – | > 8.00 |
| C[C@H](Nc1nc(C(=O)N2CC(N)C2)c2sccc2n1)c1cncc(F)c1 | < 6.30 | < 6.30 | < 6.30 | – |
